Key:
[1] = biological target: Sodium-dependent dopamine transporter (Rattus norvegicus, UniProt P23977); assay: Inhibition of [3H]WIN-35428 binding to Dopamine transporter
[2] = biological target: Norepinephrine transporter (Rattus norvegicus, UniProt Q9WTR4); assay: Binding potency for Norepinephrine transporter using [3H]NE
[3] = biological target: Sodium-dependent serotonin transporter (Rattus norvegicus, UniProt P31652); assay: Binding potency for Serotonin transporter using [3H]- paroxetine
Sequence of Sodium-dependent serotonin transporter (P31652 whole entry): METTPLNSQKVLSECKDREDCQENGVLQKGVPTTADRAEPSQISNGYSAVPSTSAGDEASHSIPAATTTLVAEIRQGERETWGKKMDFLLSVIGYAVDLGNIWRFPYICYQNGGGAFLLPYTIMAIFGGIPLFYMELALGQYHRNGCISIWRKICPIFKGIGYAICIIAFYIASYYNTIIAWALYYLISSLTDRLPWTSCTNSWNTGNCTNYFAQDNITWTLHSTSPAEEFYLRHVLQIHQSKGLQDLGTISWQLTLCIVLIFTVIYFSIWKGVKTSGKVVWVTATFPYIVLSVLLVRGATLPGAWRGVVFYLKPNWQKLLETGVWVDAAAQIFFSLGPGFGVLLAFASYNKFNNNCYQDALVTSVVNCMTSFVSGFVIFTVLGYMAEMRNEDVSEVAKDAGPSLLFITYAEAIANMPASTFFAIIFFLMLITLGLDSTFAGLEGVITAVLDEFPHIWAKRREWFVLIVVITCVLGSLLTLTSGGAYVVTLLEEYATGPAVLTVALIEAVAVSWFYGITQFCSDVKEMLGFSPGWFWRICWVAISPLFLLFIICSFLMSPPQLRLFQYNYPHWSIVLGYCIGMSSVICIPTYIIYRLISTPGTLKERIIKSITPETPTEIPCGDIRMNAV

Sequence of Sodium-dependent dopamine transporter (P23977 whole entry): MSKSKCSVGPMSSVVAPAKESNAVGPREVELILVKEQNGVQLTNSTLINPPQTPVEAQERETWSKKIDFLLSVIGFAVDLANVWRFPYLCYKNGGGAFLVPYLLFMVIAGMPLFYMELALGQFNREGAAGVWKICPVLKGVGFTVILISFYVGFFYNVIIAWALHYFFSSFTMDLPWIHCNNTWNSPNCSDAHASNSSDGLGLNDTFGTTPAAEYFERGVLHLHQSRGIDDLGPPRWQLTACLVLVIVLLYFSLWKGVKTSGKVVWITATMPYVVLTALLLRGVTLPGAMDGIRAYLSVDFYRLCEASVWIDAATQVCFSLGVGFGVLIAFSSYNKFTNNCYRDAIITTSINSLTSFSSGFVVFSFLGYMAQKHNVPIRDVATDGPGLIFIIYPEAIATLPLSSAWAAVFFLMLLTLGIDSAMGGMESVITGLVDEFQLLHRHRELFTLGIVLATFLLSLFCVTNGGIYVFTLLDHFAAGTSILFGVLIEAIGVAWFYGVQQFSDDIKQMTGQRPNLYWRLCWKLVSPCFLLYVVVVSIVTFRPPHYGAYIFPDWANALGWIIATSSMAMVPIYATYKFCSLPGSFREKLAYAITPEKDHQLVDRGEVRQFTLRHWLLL
Sequence of Norepinephrine transporter (Q9WTR4 whole entry): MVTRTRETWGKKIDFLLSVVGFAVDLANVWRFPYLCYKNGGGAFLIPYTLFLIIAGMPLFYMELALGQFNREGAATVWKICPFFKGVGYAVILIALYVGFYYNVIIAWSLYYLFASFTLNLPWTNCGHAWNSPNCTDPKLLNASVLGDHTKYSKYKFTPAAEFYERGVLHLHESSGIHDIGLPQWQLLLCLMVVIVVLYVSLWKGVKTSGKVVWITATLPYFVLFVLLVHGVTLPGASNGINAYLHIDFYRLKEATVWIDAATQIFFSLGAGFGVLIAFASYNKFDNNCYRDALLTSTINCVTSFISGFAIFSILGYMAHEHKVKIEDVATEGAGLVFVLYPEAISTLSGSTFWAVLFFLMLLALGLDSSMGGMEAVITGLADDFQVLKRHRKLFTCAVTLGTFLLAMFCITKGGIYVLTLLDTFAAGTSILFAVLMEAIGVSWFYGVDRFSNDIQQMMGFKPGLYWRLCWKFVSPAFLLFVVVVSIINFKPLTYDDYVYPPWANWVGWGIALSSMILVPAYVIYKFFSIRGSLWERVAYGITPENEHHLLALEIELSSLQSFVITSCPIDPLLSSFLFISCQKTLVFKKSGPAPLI

For `COC(=O)C1C(c2ccc(I)cc2)CC2CCC1N2C` (stereo in doubt; form 1), the IC50 [1] was 0.00285 µM and the IC50 [2] was 0.0524 µM.
Work on `COC(=O)[C@@H]1C2CC[C@H](C[C@@H]1c1ccccc1)N2C` (stereo in doubt; 2e) yielded an IC50 [1] of 0.101 µM.
`COC(=O)[C@H]1[C@@H](c2ccc(F)cc2)C[C@H]2CC[C@H]1N2C` (stereo in doubt; 1a) was tested, and the IC50 [3] was 0.81 µM.
`COC(=O)[C@H]1[C@@H](c2ccc(F)cc2)C[C@H]2CC[C@H]1N2C` (stereo in doubt; 2a) was tested, and the IC50 [3] was 5.06 µM.
`COC(=O)C1C(c2ccc(Cl)cc2)CC2CCC1N2C` (stereo in doubt; 2c) gave an IC50 [1] of 0.0024 µM and an IC50 [3] of 0.998 µM.
With `COC(=O)C1C(c2ccc(C)cc2)CC2CCC1N2C` (centres undefined) the IC50 [1] was 0.0102 µM and the IC50 [2] was 0.275 µM.

— ChEMBL document CHEMBL1129677, “3 alpha-(4'-substituted phenyl)tropane-2 beta-carboxylic acid methyl esters: novel ligands with high affinity and selectivity at the dopamine transporter” (J Med Chem, 1996)
